Source: US8742082B2, “Compositions and methods for influencing satiety, lipid metabolism, and fat utilization” (Nestec S.A., priority 2008, dated 2014)

Experiments:
Type in all cases: in vivo
[1] = system: Stearoyl-Coenzyme A desaturase 1 (SCD 1); assay: Real-time PCR gene expression in peripheral tissues: SCD1; details: C57bl6j mice, high fat diet, 100 mg/kg/body weight in diet, 5 weeks
Protocol: (§1) The expression of 45 genes was measured by real-time PCR in peripheral tissues to identify genes that were differentially expressed in response to oral administration of oleoylethanolamide (OEA) or a non-hydrolysable OEA analog (KDS 5104), which affect satiety, lipid metabolism, fat utilization, food intake, and body fat mass.
(§2) Animals, diet, and experimental design. Adult male C57bl6j mice purchased at 8 weeks of age were individually housed and maintained ad libitum on high fat diet and water for 2 weeks. Seven mice were randomly allocated in 3 groups and fed with a high fat diet (lipids represented 50% of daily energy) for 2 weeks. For one kilogram, the composition of the high fat diet was: 235 g casein, 201 g saccharose, 3.5 g L-cystine, 85 g starch, 116 g maltodextrin, 60 g cellulose, 12 g vitamins mix (AIN-93M, UPAE, Jouy-en-Josas, France), 51.5 g mineral mix (AIN-93Vx, UPAE, Jouy-en-Josas, France), and 236 g lard. Then, either OEA or KDS 5104 was added to the diet at a concentration of 100 mg/kg/body weight. The mice were kept under treatment for 5 weeks.
(§3) Sampling. At the end of the experimental period, mice were sacrificed by blood drawing (cardiac puncture) after anesthesia with isoflurane. Plasma was obtained by centrifugation (1,000 g for 10 min at 4° C.). Mesenteric, epididymal, inguinal and peritoneal adipose depots, as well as liver, stomach, small intestine mucosa, pancreas, and gastrocnemian muscle were removed and frozen into liquid nitrogen. Plasma, urine, feces, and organ samples were kept at −80° C. until analysis.
(§4) RNA extraction and gene expression. Total RNA from liver, intestine mucous membrane, adipose tissues, gastrocnemian muscle, pancreas and stomach were extracted with TRIzol reagent (Invitrogen, Carlsbad, USA) according to the manufacturer's instruction. The RNA concentration was determined on nanodrop from the absorbance at 260 nm. Retro-transcription PCRs to synthesize cDNA were performed using an Applied Biosystem Thermal Cycler 2720 and Superscript II (Invitrogen, Carlsbad, USA) according to manufacturer's protocol. Real-time quantitative PCR (RT-qPCR) were performed on cDNA obtained as described above using a high through put system (Biomek 3000, Beckman & Coulter, Fullerton, USA) and a Lightcycler 480 (Roche/Hitachi, Basel, Switzerland) with SYBR Green Master mix+kit (Eurogentec, Philadelphia, USA). Primers for the selected genes were generated using online informatics assistance from the Lightcycler manufacturer (Roche). Databases used to identify the genes were (1) the NCBI database (GenBank) and (2) the IHOP (Information Hyperlinked over Protein) database (www.ihop-net.org/UniPub/iHOP/bng/). Values were expressed as ratio of RNA levels relative to control mice (diets with 0 mg of OEA/kg/body weight) using ΔΔ(Ct) (Livak K J & Schmittgen T D, 2001, Methods 25:402-8). Gene expression of the following genes was measured (abbreviation and GenBank Accession shown in parentheses).
(§5) Statistical analysis. […] Statistical analysis of physiological parameters and gene expression data was performed by one-way ANOVA on Statview software (SAS Institute, Cary, USA). Daily food intake was analyzed using two-way ANOVA on Statview software. Statistical significance was set up at the P<0.05 level, the P<0.01 level and the P<0.001 level. For statistical analysis of the gene expression data, values were calculated relative to 18S expression for each mouse and gene.

[2] = system: Peroxisome proliferator activated receptor alpha (PPAR α); assay: Real-time PCR gene expression in peripheral tissues: PPAR α; details: proximal intestine; C57bl6j mice, high fat diet, 100 mg/kg/body weight in diet, 5 weeks
Protocol: as §1
(§6) Animals, diet, and experimental design. Adult male C57bl6j mice purchased at 8 weeks of age were individually housed and maintained ad libitum on high fat diet and water for 2 weeks. Seven mice were randomly allocated in 3 groups and fed with a high fat diet (lipids represented 50% of daily energy) for 2 weeks. […]
(§7) RNA extraction and gene expression. […] The RNA concentration was determined on nanodrop from the absorbance at 260 nm. […] Real-time quantitative PCR (RT-qPCR) were performed on cDNA obtained as described above using a high through put system (Biomek 3000, Beckman & Coulter, Fullerton, USA) and a Lightcycler 480 (Roche/Hitachi, Basel, Switzerland) with SYBR Green Master mix+kit (Eurogentec, Philadelphia, USA). […] Values were expressed as ratio of RNA levels relative to control mice (diets with 0 mg of OEA/kg/body weight) using ΔΔ(Ct) (Livak K J & Schmittgen T D, 2001, Methods 25:402-8). Gene expression of the following genes was measured (abbreviation and GenBank Accession shown in parentheses). […]

[3] = system: Fatty acid transporter/cluster of differentiation 36 (FAT/CD 36); assay: Real-time PCR gene expression in peripheral tissues: FAT/CD36; details: C57bl6j mice, high fat diet, 100 mg/kg/body weight in diet, 5 weeks
Protocol: as §1, §2, §3, §4
Statistical analysis. Results are presented as means±standard error of the means (SEM). Statistical analysis of physiological parameters and gene expression data was performed by one-way ANOVA on Statview software (SAS Institute, Cary, USA). Daily food intake was analyzed using two-way ANOVA on Statview software. Statistical significance was set up at the P<0.05 level, the P<0.01 level and the P<0.001 level. For statistical analysis of the gene expression data, values were calculated relative to 18S expression for each mouse and gene.

[4] = system: Protein convertase subtilisin/kexin type 9 (PCSK 9); assay: Real-time PCR gene expression in peripheral tissues: PCSK9; details: liver; C57bl6j mice, high fat diet, 100 mg/kg/body weight in diet, 5 weeks
Protocol: as §1, §6, §7

[5] = system: Fatty acid amide hydrolase (FAAH); assay: Real-time PCR gene expression in peripheral tissues: FAAH; details: C57bl6j mice, high fat diet, 100 mg/kg/body weight in diet, 5 weeks
Protocol: as §1, §2, §3, §4, §5

[6] = system: Uncoupling protein 2 (UCP2); assay: Real-time PCR gene expression in peripheral tissues: UCP2; details: muscle; C57bl6j mice, high fat diet, 100 mg/kg/body weight in diet, 5 weeks
Protocol: as §1, §6, §7

Cholescystokinin (CCK) = assay: Real-time PCR gene expression in peripheral tissues: CCK; details: proximal intestine; C57bl6j mice, high fat diet, 100 mg/kg/body weight in diet, 5 weeks
Protocol: as §1, §6, §7

[7] = system: Cannabinoid receptor 1 (CB 1); assay: Real-time PCR gene expression in peripheral tissues: CB1; details: C57bl6j mice, high fat diet, 100 mg/kg/body weight in diet, 5 weeks
Protocol: as §1, §2, §3, §4, §5

[8] = system: Phosphoenolpyruvate carboxykinase (PEP CK); assay: Real-time PCR gene expression in peripheral tissues: PepCK; details: liver; C57bl6j mice, high fat diet, 100 mg/kg/body weight in diet, 5 weeks
Protocol: as §1, §6, §7

[9] = system: N-acylsphingosine amidohydrolase-like (NAAA); assay: Real-time PCR gene expression in peripheral tissues: NAAA; details: C57bl6j mice, high fat diet, 100 mg/kg/body weight in diet, 5 weeks
Protocol: as §1, §2, §3, §4, §5

[10] = system: Sterol regulatory element binding protein-C 2 (SREBP2 1); assay: Real-time PCR gene expression in peripheral tissues: SREBP2; details: liver; C57bl6j mice, high fat diet, 100 mg/kg/body weight in diet, 5 weeks
Protocol: as §1, §6, §7

Leptin = assay: Real-time PCR gene expression in peripheral tissues: leptin; details: epidydimal adipose tissue; C57bl6j mice, high fat diet, 100 mg/kg/body weight in diet, 5 weeks
Protocol: as §1, §2, §3, §4, §5

## CCCCCCCC/C=C\CCCCCCCC(=O)N[C@H](C)CO [KDS 5104, (Z)—(R)-9-octadecenamide, N-(2-hydroxyethyl, 1-methyl)]
[1]; epidydimal adipose tissue
  SCD 1 at ep, ratio of RNA levels relative to control mice: 1.24
[1]; liver
  SCD1 l, ratio of RNA levels relative to control mice: −1.91
[1]; peritoneal adipose tissue
  SCD 1 at per, ratio of RNA levels relative to control mice: 1.51
[2]
  PPAR α i, ratio of RNA levels relative to control mice: 1.02
[3]; epidydimal adipose tissue
  FAT/CD36 at ep, ratio of RNA levels relative to control mice: −2.24
[3]; liver
  FAT/CD36 l, ratio of RNA levels relative to control mice: 0.88
[3]; peritoneal adipose tissue
  FAT/CD36 at per, ratio of RNA levels relative to control mice: 1.01
[3]; proximal intestine
  FAT/CD36 i, ratio of RNA levels relative to control mice: 1.83
[4]
  PCSK9 l, ratio of RNA levels relative to control mice: 1.34
[5]; epidydimal adipose tissue
  FAAH at ep, ratio of RNA levels relative to control mice: 9.71
[5]; peritoneal adipose tissue
  FAAH at per, ratio of RNA levels relative to control mice: 3.82
[5]; proximal intestine
  FAAH i, ratio of RNA levels relative to control mice: 1.28
[6]
  UCP2 m, ratio of RNA levels relative to control mice: 1.11
Cholescystokinin (CCK)
  CCK i, ratio of RNA levels relative to control mice: 1.62
[7]; epidydimal adipose tissue
  CB1 at ep, ratio of RNA levels relative to control mice: −1.48
[7]; peritoneal adipose tissue
  CB1 at per, ratio of RNA levels relative to control mice: −3.00
[7]; proximal intestine
  CB1 i, ratio of RNA levels relative to control mice: −1.25
[8]
  PepCK l, ratio of RNA levels relative to control mice: 1.55
[9]; epidydimal adipose tissue
  NAAA at ep, ratio of RNA levels relative to control mice: 1.38
[9]; peritoneal adipose tissue
  NAAA at per, ratio of RNA levels relative to control mice: 1.52
[9]; proximal intestine
  NAAA i, ratio of RNA levels relative to control mice: 1.60
[10]
  SREBP2 l, ratio of RNA levels relative to control mice: 1.13
Leptin
  leptin at ep, ratio of RNA levels relative to control mice: 1.35
